For 21 compounds, IC50 and efflux ratio results are on record in patent US10995101B2, “2-oxo-thiazole derivatives as A2A inhibitors and compounds for use in the treatment of cancers” (iTeos Therapeutics SA, priority 2017, dated 2021).

As usually defined, the IC50 is the point on the concentration scale where inhibition reaches its midpoint. Read a high IC50 as a need for much substance. What is called efflux ratio is a quotient of directional permeabilities that is used to spot active efflux.

One data set deals with A2A receptor (Homo sapiens, UniProt P29274). Description: Inhibition of cAMP production in HEK cells. It is filed as cell-based. The conditions noted are these: HEK-293 cells with A2A receptor. As for the experimental part: When the A2A receptor is activated, is induces the production of cAMP.
Sequence of A2A receptor (P29274 whole entry): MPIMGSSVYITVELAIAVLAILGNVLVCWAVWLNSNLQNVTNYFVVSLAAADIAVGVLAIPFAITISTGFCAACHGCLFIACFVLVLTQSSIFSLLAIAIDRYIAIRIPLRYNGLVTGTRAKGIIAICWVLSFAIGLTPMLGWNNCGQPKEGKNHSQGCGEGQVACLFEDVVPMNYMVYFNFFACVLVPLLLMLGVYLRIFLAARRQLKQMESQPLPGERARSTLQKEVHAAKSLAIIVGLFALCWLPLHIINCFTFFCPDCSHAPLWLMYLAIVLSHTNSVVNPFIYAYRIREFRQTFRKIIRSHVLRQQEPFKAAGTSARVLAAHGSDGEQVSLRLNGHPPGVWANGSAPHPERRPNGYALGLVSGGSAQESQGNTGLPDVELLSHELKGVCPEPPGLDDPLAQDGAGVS
HEK-293 cells with a stable transfection of A2A receptor were bought from PerkinElmer® (# ES-011-C). […] Fresh media without the selection marker was added on the day immediately before the experiment to stop selection pressure.
Stimulation buffer b) mimics the human situation by increasing the amount of albumin present in the assay.
Compounds of the present invention were diluted 100× in either of the buffers depending on the assay performed. […] The total volume of the reaction was 20 μl (10 μl of cells, 5 μl of antagonist and 5 μl of agonist). The reaction was finalized by adding 10 μl of 4× EU-cAMP tracer working solution and 10 μl of 4× ULight-anti-cAMP working solution. The TR-FRET signal was measured after 1 hour using a Spectramax Paradigm (Molecular Devices).

A further data set is described as follows: in vitro. The conditions noted are these: human, Caco-2, pH 7.4.
Where [1] appears, read: IC50 (nM) (3 nM NECA as agonist, 0.1% BSA), 3 nM NECA as agonist, 0.1% BSA.
Setting [2] is: IC50 (nM) (5 nM NECA as agonist, 2% HSA), 5 nM NECA as agonist, 2% HSA.
Setting [3] is: IC50 (nM) (5 μM Adenosine as agonist, 2.0% HSA), 5 μM Adenosine as agonist, 2.0% HSA.

`C[S@+]([O-])CCOc1ccc(N2CCN(CCn3c(=O)sc4c3nc(N)n3nc(-c5ccco5)nc43)CC2)c(F)c1` (single isomer, unassigned) [Compound 5]: the IC50 at A2A receptor (setting [1]) came out at 0.4 nM; on A2A receptor (setting [2]), 8 nM; on A2A receptor (setting [3]), 241 nM. In addition, the efflux ratio at 120 min, 2 μM in the data set “in vitro” came to 67.

Consider `C[S@@+]([O-])CCOc1ccc(N2CCN(CCn3c(=O)sc4c3nc(N)n3nc(-c5ccco5)nc43)CC2)c(F)c1` (single isomer, unassigned) [Compound 6], for which the IC50 is 0.5 nM at A2A receptor (setting [1]), 8 nM at A2A receptor (setting [2]) and 179 nM on A2A receptor (setting [3]). Besides, the efflux ratio at 120 min, 2 μM in “in vitro” is 59.

For the compound `C[S@@+]([O-])c1ccc(N2CCN(CCn3c(=O)sc4c3nc(N)n3nc(-c5ccco5)nc43)CC2)c(F)c1` (single isomer, unassigned) [Compound 119], the results for the IC50 on A2A receptor (setting [1]) and at A2A receptor (setting [3]) were 0.4 nM and 183 nM, respectively. Moreover, the efflux ratio at 120 min, 2 μM in the data set “in vitro” is 31.

Regarding `C[S@+]([O-])c1ccc(N2CCN(CCn3c(=O)sc4c3nc(N)n3nc(-c5ccco5)nc43)CC2)c(F)c1` (single isomer, unassigned) [Compound 120], the concentration for half-maximal inhibition (IC50) was 0.4 nM at A2A receptor (setting [1]) and 123 nM at A2A receptor (setting [3]). The efflux ratio at 120 min, 2 μM in “in vitro” was found to be 33.

In the case of `Nc1nc2c(sc(=O)n2CCN2CCN(c3ccc(O[C@H]4CC[S@@+]([O-])CC4)cc3F)CC2)c2nc(-c3ccco3)nn12` (single isomer, unassigned) [Compound 121, 5-amino-3-(2-(4-(2-fluoro-4-(((1s,4s)-1-oxidotetrahydro-2H-thiopyran-4-yl)oxy)phenyl)piperazin-1-yl)ethyl)-8-(furan-2-yl)thiazolo[5,4-e][1,2,4]triazolo[1,5-c]pyrimidin-2(3H)-one], the IC50 is 0.8 nM at A2A receptor (setting [1]) and 232 nM at A2A receptor (setting [3]). In “in vitro”, the efflux ratio at 120 min, 2 μM stood at 90.

Regarding `Nc1nc2c(sc(=O)n2CCN2CCN(c3ccc(O[C@H]4CC[S@+]([O-])CC4)cc3F)CC2)c2nc(-c3ccco3)nn12` (single isomer, unassigned) [Compound 122, 5-amino-3-(2-(4-(2-fluoro-4-(((1r,4r)-1-oxidotetrahydro-2H-thiopyran-4-yl)oxy)phenyl)piperazin-1-yl)ethyl)-8-(furan-2-yl)thiazolo[5,4-e][1,2,4]triazolo[1,5-c]pyrimidin-2(3H)-one], the half-maximal inhibitory concentration (IC50) was determined as 0.8 nM at A2A receptor (setting [1]) and 187 nM at A2A receptor (setting [3]). The efflux ratio at 120 min, 2 μM in “in vitro” amounted to 349.

With `Nc1nc2c(sc(=O)n2CCN2CCN(c3ccncc3F)CC2)c2nc(-c3ccco3)nn12` [Compound 3, 5-amino-3-(2-(4-(3-fluoropyridin-4-yl)piperazin-1-yl)ethyl)-8-(furan-2-yl)thiazolo[5,4-e][1,2,4]triazolo[1,5-c]pyrimidin-2(3H)-one], in “in vitro”, the efflux ratio at 120 min, 2 μM was 4.

Take `CN(CCOc1ccc(N2CCN(CCn3c(=O)sc4c3nc(N)n3nc(-c5ccco5)nc43)CC2)c(F)c1)CC(N)=O` [Compound 46, 2-((2-(4-(4-(2-(5-amino-8-(furan-2-yl)-2-oxothiazolo[5,4-e][1,2,4]triazolo[1,5-c]pyrimidin-3(2H)-yl)ethyl)piperazin-1-yl)-3-fluorophenoxy)ethyl)(methyl)amino)acetamide]: in the data set “in vitro”, the efflux ratio at 120 min, 2 μM turned out to be 30.

Take `CNCCN(C)C(=O)COc1ccc(N2CCN(CCn3c(=O)sc4c3nc(N)n3nc(-c5ccco5)nc43)CC2)c(F)c1` [Compound 58, 2-(4-(4-(2-(5-amino-8-(furan-2-yl)-2-oxothiazolo[5,4-e][1,2,4]triazolo[1,5-c]pyrimidin-3(2H)-yl)ethyl)piperazin-1-yl)-3-fluorophenoxy)-N-methyl-N-(2-(methylamino)ethyl)acetamide]: the IC50 was found to be 0.3 nM at A2A receptor (setting [1]), 1 nM on A2A receptor (setting [2]) and 41 nM at A2A receptor (setting [3]).

Turning to `CC(C)(Oc1cc(N2CCN(CCn3c(=O)sc4c3nc(N)n3nc(-c5ccco5)nc43)CC2)c(F)cc1F)C(=O)O` [Compound 59, 2-(5-(4-(2-(5-amino-8-(furan-2-yl)-2-oxothiazolo[5,4-e][1,2,4]triazolo[1,5-c]pyrimidin-3(2H)-yl)ethyl)piperazin-1-yl)-2,4-difluorophenoxy)-2-methylpropanoic acid], the IC50 at A2A receptor (setting [1]) stood at 0.9 nM; on A2A receptor (setting [2]), 21 nM; at A2A receptor (setting [3]), 1070 nM.

Regarding `Nc1nc2c(sc(=O)n2CCN2CCN(c3cc(OCCCC(=O)O)c(F)cc3F)CC2)c2nc(-c3ccco3)nn12` [Compound 65, 4-(5-(4-(2-(5-amino-8-(furan-2-yl)-2-oxothiazolo[5,4-e][1,2,4]triazolo[1,5-c]pyrimidin-3(2H)-yl)ethyl)piperazin-1-yl)-2,4-difluorophenoxy)butanoic acid], the IC50 on A2A receptor (setting [1]) turned out to be 0.6 nM; on A2A receptor (setting [2]), 27 nM; at A2A receptor (setting [3]), 494 nM.

Turning to `CCOC(=O)COc1cc(N2CCN(CCn3c(=O)sc4c3nc(N)n3nc(-c5ccco5)nc43)CC2)c(F)cc1F` [Compound 73, ethyl 2-(5-(4-(2-(5-amino-8-(furan-2-yl)-2-oxothiazolo[5,4-e][1,2,4]triazolo[1,5-c]pyrimidin-3(2H)-yl)ethyl)piperazin-1-yl)-2,4-difluorophenoxy)acetate], the half-inhibitory concentration (IC50) at A2A receptor (setting [1]) was 3.4 nM; at A2A receptor (setting [2]), 8 nM; at A2A receptor (setting [3]) it was 304 nM.

As to `Nc1nc2c(sc(=O)n2CCN2CCN(c3ccncc3)CC2)c2nc(-c3ccco3)nn12` [Compound 75, 5-amino-8-(furan-2-yl)-3-(2-(4-(pyridin-4-yl)piperazin-1-yl)ethyl)thiazolo[5,4-e][1,2,4]triazolo[1,5-c]pyrimidin-2(3H)-one], the IC50 on A2A receptor (setting [1]) was determined as 24 nM; at A2A receptor (setting [2]) it was 100 nM.

Consider `Nc1nc2c(sc(=O)n2CCN2CCN(c3ccncn3)CC2)c2nc(-c3ccco3)nn12` [Compound 76, 5-amino-8-(furan-2-yl)-3-(2-(4-(pyrimidin-4-yl)piperazin-1-yl)ethyl)thiazolo[5,4-e][1,2,4]triazolo[1,5-c]pyrimidin-2(3H)-one], for which the IC50 on A2A receptor (setting [1]) amounted to 5 nM; at A2A receptor (setting [2]), 151 nM.

In turn, `CN(C)CCNC(=O)c1cc(N2CCN(CCn3c(=O)sc4c3nc(N)n3nc(-c5ccco5)nc43)CC2)c(F)cc1F` [Compound 81, 5-(4-(2-(5-amino-8-(furan-2-yl)-2-oxothiazolo[5,4-e][1,2,4]triazolo[1,5-c]pyrimidin-3(2H)-yl)ethyl)piperazin-1-yl)-N-(2-(dimethylamino)ethyl)-2,4-difluorobenzamide] came in with an IC50 on A2A receptor (setting [1]) of 117 nM. That is a sub-micromolar value.

On to `Nc1nc2c(sc(=O)n2CCN2CCN(c3cc(O[C@@H]4CNC[C@@H]4F)c(F)cc3F)CC2)c2nc(-c3ccco3)nn12` [Compound 93, 5-amino-3-(2-(4-(2,4-difluoro-5-(((3R,4S)-4-fluoropyrrolidin-3-yl)oxy)phenyl)piperazin-1-yl)ethyl)-8-(furan-2-yl)thiazolo[5,4-e][1,2,4]triazolo[1,5-c]pyrimidin-2(3H)-one], for which the half-inhibitory concentration (IC50) at A2A receptor (setting [1]) worked out at 0.4 nM; on A2A receptor (setting [3]), 33 nM.

Regarding `Nc1nc2c(sc(=O)n2CCN2CCN(c3cc(O[C@H]4CNC[C@H]4F)c(F)cc3F)CC2)c2nc(-c3ccco3)nn12` [Compound 94, 5-amino-3-(2-(4-(2,4-difluoro-5-(((3S,4R)-4-fluoropyrrolidin-3-yl)oxy)phenyl)piperazin-1-yl)ethyl)-8-(furan-2-yl)thiazolo[5,4-e][1,2,4]triazolo[1,5-c]pyrimidin-2(3H)-one], the efflux ratio at 120 min, 2 μM in the data set “in vitro” was found to be 173.

In the case of `Nc1nc2c(sc(=O)n2CCN2CCN(c3cc(OCC(=O)NCCN4CCOCC4)c(F)cc3F)CC2)c2nc(-c3ccco3)nn12` [Compound 97, 2-(5-(4-(2-(5-amino-8-(furan-2-yl)-2-oxothiazolo[5,4-e][1,2,4]triazolo[1,5-c]pyrimidin-3(2H)-yl)ethyl)piperazin-1-yl)-2,4-difluorophenoxy)-N-(2-morpholinoethyl)acetamide], the values for the IC50 at A2A receptor (setting [1]) and at A2A receptor (setting [3]) were 1.1 nM and 30 nM, respectively.

With `Nc1nc2c(sc(=O)n2CCN2CCN(c3ccc(OCC(=O)NCCN4CCOCC4)cc3F)CC2)c2nc(-c3ccco3)nn12` [Compound 105, 2-(4-(4-(2-(5-amino-8-(furan-2-yl)-2-oxothiazolo[5,4-e][1,2,4]triazolo[1,5-c]pyrimidin-3(2H)-yl)ethyl)piperazin-1-yl)-3-fluorophenoxy)-N-(2-morpholinoethyl)acetamide], the 50% inhibitory concentration (IC50) was 0.7 nM at A2A receptor (setting [1]) and 95 nM at A2A receptor (setting [3]).

For `Nc1nc2c(sc(=O)n2CCN2CCN(c3ccc(C(=O)NCCN4CCOCC4)cc3F)CC2)c2nc(-c3ccco3)nn12` [Compound 106, 4-(4-(2-(5-amino-8-(furan-2-yl)-2-oxothiazolo[5,4-e][1,2,4]triazolo[1,5-c]pyrimidin-3(2H)-yl)ethyl)piperazin-1-yl)-3-fluoro-N-(2-morpholinoethyl)benzamide], the half-maximal inhibitory concentration (IC50) at A2A receptor (setting [1]) came to 0.3 nM; at A2A receptor (setting [3]) it was 205 nM.

As to `Nc1nc2c(sc(=O)n2CCN2CCN(c3cc(OC[C@@H](O)CO)c(F)cc3F)CC2)c2nc(-c3ccco3)nn12` [Compound 127, (S)-5-amino-3-(2-(4-(5-(2,3-dihydroxypropoxy)-2,4-difluorophenyl)piperazin-1-yl)ethyl)-8-(furan-2-yl)thiazolo[5,4-e][1,2,4]triazolo[1,5-c]pyrimidin-2(3H)-one], the IC50 on A2A receptor (setting [1]) was found to be 0.5 nM; on A2A receptor (setting [3]) it was 35 nM.
